According to patent publication US10149644B2, “Curcumin derivatives for amyloid-β plaque imaging” (The General Hospital Corporation, priority 2008, dated 2018):
Like-named read-outs stand apart in the source and are kept apart here. Values belong to the compound of their own block, whether it stands above or below them.

Experiments:
[1] = molecular target: T1, Aβ40 aggregates (Homo sapiens, UniProt P05067); test: In vitro Aβ aggregates binding constant measurement; conditions: Aβ40 aggregates in PBS, fluorescence intensity, nonlinear one-site regression; read-out: Binding constant (Kd) towards Aβ aggregates
T1 construct: Synthetic amyloid-b protein (1-40) was purchased from rPeptide; purchased rPeptide (Bogart, Ga.)
Description: […] The Kd binding curve was generated by software Prism 3.0 with nonlinear one-site binding regression.
Binding constant (Kd) of CRANAD-2 towards Aβ aggregates was measured by fluorescence intensity (F.I.) with various concentrations of the prob.

[2] = system: senile plaques; test: Ex vivo histological correlation; format: in vivo, mice; conditions: 10 mg/kg i.v.
Description: 19 month-old mouse was injected CRANAD-2 (10.0 mg/kg), and was sacrified after perfusion with 4% formaldehyde. The brain was taken and embedded in OCT. For histology, the brain was sliced into 25μ slices, and co-stained with thioflavin S as described above. To obtain ex vivo confirmation of the probe binding, mice at different ages were i.v injected with 10 mg/kg of CRANAD-2 probe, perfused and scarified at 1 h after injection.

[3] = molecular target: T1, Aβ40 aggregates; conditions: reported values used for comparison; read-out: Kd towards Aβ aggregates (literature); cited from earlier work
[4] = system: Aβ plaques; test: AD tissue staining of APP-PS1 brain sections; conditions: 25 micron sections, 12-month old APP-PS1 mice
Description: The inventors conducted tissue staining with 25 micron brain sections from 12-month old APP-PS1 mice by all the compounds listed in FIG. 12.

[5] = molecular target: T1, Aβ40 aggregates; test: Aβ aggregates detection in solution by fluorescence spectrum; format: binding; conditions: 250 nM compound, 250 nM Aβ40 aggregates, PBS
Description: They then incubated 250 nM of the compounds with 250 nM of Aβ40 aggregates (calculation based on monomer) in PBS for one minute, and then measured the fluorescence spectra of the solutions.

[6] = cited from earlier work
[7] = Fluorescence emission properties of the probes; format: physicochemical; conditions: probe alone, methanol (FIG. 2)
Description: Reagents used for synthesis were purchased from Aldrich without further purification. Column chromatography was performed on silica gel (SiliCycle Inc., 60 Å, […]) slurry packed into glass columns. Thioflavin S was purchased from Aldrich. Synthetic amyloid-b protein (1-40) was purchased from rPeptide (Bogart, Ga., 30622) and aggregates for in vitro studies were generated followed the reported procedure. BSA was purchased from Sigma, and human serum was obtained from Invitrogen (type AB). ^1H and ^13C NMR spectra were recorded at 400 MHz and 100 MHz respectively, and are reported in ppm downfield from tetramethylsilane. Fluorescence studies were carried out with F-4500 Fluorescense Spectrophotometer. Fluorescence quantum yields were determined using aqueous solution of Cy5.5-maleimide as a standard (y=0.23). High resolution mass spectra were obtained at the Harvard University, Department of Chemistry Instrumentation Facility. Transgenic Tg2576 mice {45} and littermates were purchased from Taconic Farm, Balb/c mice for BBB penetrating test were obtained from Jackson Laboratory, and the experiment procedure was approved by Massachusetts General Hospital. In vivo imaging was recorded on Kodak Imaging Station 2000MM.
Furthermore, by comparing the fluorescence intensity in methanol, the quantum yield of CRANAD-2 was significant higher than that of curcumin (FIG. 2). […] Additionally, these modifications produced a large stokes shift and improved quantum yield of CRANAD-2. The synthesized compound produced the longest emission and the largest stokes shift among the existing probes for senile plaque detection {3}.

T1 sequence (P05067 672-711 limits assumed): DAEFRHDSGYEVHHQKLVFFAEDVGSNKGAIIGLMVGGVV

Kd [1]: 1 nM
SMILES: COc1cc(C=CC2=CC(C=Cc3ccc(O)c(OC)c3)=[O+][B-](F)(F)O2)ccc1O [CRANAD-1, 1,7-Bis-(4-hydroxy-3-methoxyphenyl)-hepta-1,6-diene-2′,2′-difluoro-1′,3′-dioxaboryl-3,5-dione]
Labelling of senile plaques ex vivo after i.v. injection ([2]; 11-month old transgenic and wild-type mice, thioflavin S staining): could not find obvious senile plaques
Labelling of senile plaques ex vivo after i.v. injection ([2]; 19-month old transgenic mice): can penetrate BBB and label senile plaques in vivo

SMILES: N#CC(C#N)=Cc1ccc(-c2ccc(-c3ccc(O)cc3)s2)s1 [NIAD-4]
Kd [3]: 10 nM

SMILES: [11CH3]Nc1ccc(-c2nc3ccc(O)cc3s2)cc1 [PiB]
Staining of plaques in brain sections [4]: stained the plaques brightly

FI amplification with Aβ40 aggregates [5]: 72 fold
Fluorescence intensity change with Aβ40 aggregates ([5]; one minute): intensity increases
SMILES: Cc1ccc2c(c1)sc(-c1ccc(N(C)C)cc1)[n+]2C.[Cl-] [Thioflavin T]
Staining of plaques in brain sections [4]: stained the plaques brightly

Fluorescence intensity change with Aβ40 aggregates ([5]; one minute): intensity increases
Wavelength shift with Aβ40 aggregates ([5]; one minute): wavelength blue-shifts
Stokes shift [7]: 50 nm
λmax(em) [7]: 560 nm
λmax(ex) [7]: 510 nm
SMILES: COc1cc(C=CC(=O)CC(=O)C=Cc2ccc(O)c(OC)c2)ccc1O [curcumin, 1,7-bis(4-hydroxy-3-methoxyphenyl)-1,6-heptadiene-3,5-dione]
Staining of plaques in brain sections [4]: stained the plaques brightly
log P (literature) [6]: < 2
